Measured values published in patent US4120864A, “1,2,4-4H-triazole derivatives” (Rohm and Haas Company, priority 1972, dated 1978).
Where a name gives a salt, the structure may show the parent alone. Read-outs that look alike come from different tables or passages of the source.

Columns and labels:
Type in all cases: in vivo
[1] = tested on: wheat leaf rust, Puccinia recondita; assay: whole plant or invertebrate; settings: foliar; for pest or weed control at 280.212 g/ha: read-out: % Control (without rain), foliar, 0.25 lb.; for pest or weed control at 1120.85 g/ha: read-out: % Control (without rain), foliar, 1 lb.
[2] = tested on: wheat leaf rust, Puccinia recondita
[3] = tested on: wheat leaf rust, Puccinia recondita; assay: whole plant or invertebrate; settings: foliar; for pest or weed control at 280.212 g/ha: read-out: % Control (with 1" of rain), foliar, 0.25 lb., 1" of rain; for pest or weed control at 1120.85 g/ha: read-out: % Control (with 1" of rain), foliar, 1 lb., 1" of rain
[4] = tested on: wheat leaf rust, Puccinia recondita; assay: Foliar systemic activity on leaf rust
Excerpt: Another type of systemic test was run in which pots of approximately 5 inch high wheat plants were sprayed with varying concentrations of the test compound. Thirty-six hours later they were sprayed six minutes in a rain machine which amounted to about one inch of normal rainfall. The plants were then placed in a greenhouse for 7 days and then inoculated with a spore suspension of wheat leaf rust, Puccinia recondita. About 7 days later lesion counts were made on ten leaves representing the sprayed leaves and new growth from each replicate and compared with similar pots of wheat plants which were untreated with a chemical and the percent disease control determined. Disease control on the new growth is a measure of systemic activity. The commercial product known by the trademarked name Plantvax, which is 2,3-dihydro-5-carboxanilido-6-methyl-1,4-oxathiin-4,4-dioxide, was used as a standard.

SMILES	pest or weed control at 280.212 g/ha [1]	pest or weed control at 1120.85 g/ha [1]	% Systemic Wheat Leaf Rust Control ([2]; 2.5 ppm in soil)	% Systemic Wheat Leaf Rust Control ([2]; 10 ppm in soil)	pest or weed control at 280.212 g/ha [3]	pest or weed control at 1120.85 g/ha [3]	% Systemic Wheat Leaf Rust Control ([2]; 5 ppm in soil)	% Rust Control, New growth ([4]; 1/2 lb./100 gal.)	% Rust Control, Sprayed Leaf ([4]; 1/2 lb./100 gal.)	% Rust Control, New growth ([4]; 1/6 lb./100 gal.)	% Rust Control, Sprayed Leaf ([4]; 1/6 lb./100 gal.)	% Rust Control, New growth ([4]; 1/12 lb./100 gal.)	% Rust Control, Sprayed Leaf ([4]; 1/12 lb./100 gal.)	% Control (without rain) ([1]; 0.25 lb.)	% Control (without rain) ([1]; 1 lb.)	% Control (with 1" of rain) ([3]; 0.25 lb.)	% Control (with 1" of rain) ([3]; 1 lb.)	% Systemic Wheat Leaf Rust Control ([2]; 20 ppm in soil)
Clc1ccc(-n2cnnc2)cc1Cl [Example 57, 4-(3,4-dichlorophenyl)-1,2,4-triazole]	80%	90%	54%	68%	40%	60%	–	–	–	–	–	–	–	–	–	–	–	–
CCCn1cnnc1 [Example 1, 4-n-propyl-1,2,4-triazole]	100%	100%	99%	–	87%	100%	100%	–	–	–	–	–	–	–	–	–	–	–
CCCCn1cnnc1SCC(N)=O [Example 111, 3-carbamoylmethylmercapto-4-n butyl-1,2,4-triazole]	100%	100%	76%	92%	93%	100%	91%	88%	88%	59%	51%	38%	49%	–	–	–	–	–
N#CCCn1ncn(-c2ccccc2)c1=S [Example 126, 2-(2-cyanoethyl)-4-phenyl-1,2,4-triazoline-3-thione]	93%	96%	–	–	83%	96%	–	42%	13%	27%	0%	0%	0%	–	–	–	–	–
c1ccc(Cn2cnnc2)cc1 [Example 49, 4-benzyl-1,2,4-triazole]	95%	100%	96%	99%	100%	100%	98%	87%	99%	54%	76%	46%	42%	–	–	–	–	–
CCCCn1cnnc1SC(=O)c1ccco1 [Example 124, 3-furoylmercapto-4-n-butyl-1,2,4-triazole]	100%	100%	94%	99%	100%	100%	99%	–	–	–	–	–	–	–	–	–	–	–
CCCCn1c(SC(=O)NC)nnc1C(=O)O [Example 99, 3-methylcarbamoylmercapto-4-n-butyl 5-carboxy-1,2,4-triazole]	99%	99%	96%	100%	100%	100%	99%	82%	69%	69%	74%	56%	81%	–	–	–	–	–
CCCCn1cnnc1SC(=O)NC [Example 114, 3-methylcarbamoylmercapto-4-n-butyl-1,2,4-triazole]	100%	100%	96%	100%	100%	100%	100%	98%	96%	79%	83%	67%	68%	–	–	–	–	–
CCCCCCn1cnnc1S [Example 79, 3-mercapto-4-n-hexyl-1,2,4-triazole]	100%	100%	0%	54%	100%	100%	0%	65%	96%	48%	88%	38%	85%	–	–	–	–	–
CCCCn1c(SC(=S)N(C)C)nnc1C(=O)O [Example 101, 3-dimethylthiocarbamoylmercapto-4-n-butyl-5-carboxy-1,2,4-triazole]	100%	100%	88%	100%	100%	100%	96%	–	–	–	–	–	–	–	–	–	–	–
CCCCCn1cnnc1S [Example 78, 3-mercapto-4-n-pentyl-1,2,4-triazole]	97%	100%	97%	97%	100%	100%	97%	92%	98%	79%	96%	57%	91%	–	–	–	–	–
CCCCn1c(S)nnc1C(=O)OCC [Example 98, sodium salt of 3-mercapto-4-butyl-5-ethoxycarbonyl-1,2,4-triazole]	–	–	85%	99%	–	–	97%	–	–	–	–	–	–	86%	100%	100%	100%	–
Clc1ccc(-n2cnnc2)nc1 [Example 63, 4-(5-chloro-2-pyridyl)-1,2,4-triazole]	90%	95%	–	–	45%	85%	–	–	–	–	–	–	–	–	–	–	–	95%
CCCn1cnnc1S [Example 75, 3-mercapto-4-n-propyl-1,2,4-triazole]	91%	100%	40%	84%	100%	99%	82%	–	–	–	–	–	–	–	–	–	–	–
CC(C)Cn1cnnc1 [Example 4, 4-isobutyl-1,2,4-triazole]	95%	95%	–	–	30%	60%	–	–	–	–	–	–	–	–	–	–	–	100%
CC(C)CCn1cnnc1 [Example 8, 4-isopentyl-1,2,4-triazole]	98%	99%	–	–	98%	100%	–	–	–	–	–	–	–	–	–	–	–	100%
COCCCn1cnnc1 [Example 46, 4-(3-methoxypropyl)-1,2,4-triazole]	100%	100%	96%	–	99%	100%	99%	–	–	–	–	–	–	–	–	–	–	–
CCCCn1cnnc1SCC(=O)c1ccc(OC)cc1 [Example 125, 3-(p-methoxyphenacylmercapto)-4-n-butyl-1,2,4-triazole]	50%	60%	55%	44%	20%	30%	68%	–	–	–	–	–	–	–	–	–	–	–
CCCCCCn1cnnc1 [Example 9, 4-n-hexyl-1,2,4-triazole]	100%	100%	77%	–	100%	100%	92%	–	–	–	–	–	–	–	–	–	–	–
CCCCn1cnn(CCC#N)c1=S [Example 106, 2-(2-cyanoethyl)-4-n-butyl-1,2,4-triazoline-3-thione]	100%	100%	82%	92%	99%	100%	86%	–	–	–	–	–	–	–	–	–	–	–
CC(C)(C)n1cnnc1 [Example 6, 4-t-butyl-1,2,4-triazole]	100%	100%	–	–	95%	95%	–	–	–	–	–	–	–	–	–	–	–	–
CCCCCCCCCCSc1nncn1CCCC [Example 104, 3-n-decylmercapto-4-butyl-1,2,4-triazole]	80%	98%	–	–	45%	98%	–	–	–	–	–	–	–	–	–	–	–	–
